The source made the active and inactive calls. No cut-off for these calls is given here.
Assays:
[1] = target: T1, 26S proteasome non-ATPase regulatory subunit 10 (Homo sapiens) (UniProt O75832); experiment: Binding affinity to gankyrin (unknown origin) assessed as fold increase in change in melting temperature at 300 uM by thermal shift assay relative to control
T1 sequence (whole entry): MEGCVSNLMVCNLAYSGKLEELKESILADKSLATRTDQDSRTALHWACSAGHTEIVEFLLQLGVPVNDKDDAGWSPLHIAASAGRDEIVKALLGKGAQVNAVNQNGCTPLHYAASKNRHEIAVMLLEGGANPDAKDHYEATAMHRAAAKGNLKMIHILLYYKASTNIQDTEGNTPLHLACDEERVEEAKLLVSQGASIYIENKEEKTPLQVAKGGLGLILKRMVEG

Hep 3B2 [2] = experiment: Antiproliferative activity against human Hep3B cells assessed as reduction in cell viability incubated for 72 hrs by MTT assay; type: functional, cell-based
HepG2 [3] = experiment: Antiproliferative activity against human HepG2 cells assessed as reduction in cell viability incubated for 72 hrs by MTT assay; type: functional, cell-based; settings: HepG2, 72 h
Hep 3B2 [4] = experiment: Antiproliferative activity against human Hep3B cells assessed as reduction in cell viability at 50 uM incubated for 72 hrs by MTT assay relative to control; type: functional
HepG2 [5] = experiment: Antiproliferative activity against human HepG2 cells assessed as reduction in cell viability at 50 uM incubated for 72 hrs by MTT assay relative to control; type: functional; settings: HepG2, 72 h

Compound	Activity [1]	IC50 (Hep 3B2 [2]) [µM]	IC50 (HepG2 [3]) [µM]	also measured
COC(=O)c1ccc(-n2cc(CCCOS(=O)(=O)c3ccc(OC)cc3)nn2)cc1	Active			
COC(=O)c1ccc(-n2cc(CCCOS(=O)(=O)c3cccc(Cl)c3)nn2)cc1	inactive			
COC(=O)c1ccc(-n2cc(CCCOS(=O)(=O)c3cccc(F)c3)nn2)cc1		> 50	> 50	fold change (FC) [1]: 1.4; inhibition at 50 µM (Hep 3B2 [4]): 0%; inhibition at 50 µM (HepG2 [5]): 0%
CCc1ccc(S(=O)(=O)OCCCc2cn(-c3ccc(C(=O)OC)cc3)nn2)cc1	Active			
COC(=O)c1ccc(-n2cc(CCCOS(=O)(=O)c3cccc(C#N)c3)nn2)cc1	Active			
COC(=O)c1ccc(-n2cc(CCCOS(=O)(=O)c3ccc(I)cc3)nn2)cc1		25.3	17.5	fold change (FC) [1]: 1.7
COC(=O)c1ccc(-n2cc(CCCOS(=O)(=O)c3ccccc3)nn2)cc1	inactive			
COC(=O)c1ccc(-n2cc(CCCOS(=O)(=O)c3ccc(C(=O)OC)cc3)nn2)cc1	Active			
COC(=O)c1ccc(-n2cc(CCCOS(=O)(=O)c3ccc(C#N)cc3)nn2)cc1	Active			
COC(=O)c1ccc(-n2cc(CCCOS(=O)(=O)c3ccc(-c4ccccc4)cc3)nn2)cc1		26	46.2	fold change (FC) [1]: 2.3
COC(=O)c1ccc(-n2cc(CCCOS(=O)(=O)c3ccc(C)cc3)nn2)cc1	Active	> 50	> 50	inhibition at 50 µM (Hep 3B2 [4]): 0%; inhibition at 50 µM (HepG2 [5]): 0%
CNC(=O)c1ccc(S(=O)(=O)OCCCc2cn(-c3ccc(C(=O)OC)cc3)nn2)cc1	inactive			
COC(=O)c1ccc(-n2cc(CCCOS(=O)(=O)c3cccc(C(=O)OC)c3)nn2)cc1	inactive			
COC(=O)c1ccc(-n2cc(CCCOS(=O)(=O)c3cccc(C)c3)nn2)cc1	inactive			
COC(=O)c1ccc(-n2cc(CCCOS(=O)(=O)c3ccc(C(C)C)cc3)nn2)cc1	inactive			
COC(=O)c1ccc(-n2cc(CCCOS(=O)(=O)c3cccc(OC)c3)nn2)cc1		20.9	36.9	fold change (FC) [1]: 1.9
COC(=O)c1ccc(-n2cc(CCCOS(=O)(=O)c3ccccc3C)nn2)cc1		> 50	> 50	fold change (FC) [1]: 2; inhibition at 50 µM (Hep 3B2 [4]): 0%; inhibition at 50 µM (HepG2 [5]): 0%
CCc1cccc(S(=O)(=O)OCCCc2cn(-c3ccc(C(=O)OC)cc3)nn2)c1	inactive			
